Results as given in PMC7044277 (Nature Communications, 2020).
“And” between values parts separate entries of the source, which are not always exact repeats. Identical values can stand only once.

Tests used:
Format in all cases: cell-based
Design in all cases: GPCRome screening signal at PTGIR / GPCRome screening signal at PTH1R / GPCRome screening signal at PTH2R / GPCRome screening signal at QRFP / GPCRome screening signal at RXFP2 / GPCRome screening signal at RXFP3 / GPCRome screening signal at RXFP4 / GPCRome screening signal at S1PR2 / GPCRome screening signal at S1PR3 / GPCRome screening signal at S1PR4 / GPCRome screening signal at S1PR5 / GPCRome screening signal at SCTR / GPCRome screening signal at SSTR2 / GPCRome screening signal at SSSTR / GPCRome screening signal at SSTR4 / GPCRome screening signal at SSTR5 / GPCRome screening signal at SUCNR1 / GPCRome screening signal at TA1 / GPCRome screening signal at TAAR2 / GPCRome screening signal at TAAR5 / GPCRome screening signal at TAAR6 / GPCRome screening signal at TAAR8 / GPCRome screening signal at TACR1 / GPCRome screening signal at TACR2 / GPCRome screening signal at TACR3 / GPCRome screening signal at TBXA2R / GPCRome screening signal at TSHR / GPCRome screening signal at UTS2R / GPCRome screening signal at VIPR2 / GPCRome screening signal at GPR68 no V2 Tail / GPCRome screening signal at GRM2 / GPCRome screening signal at GRM3: reference not given here
320 non-olfactory GPCRs [1] = biological target: T1, 320 non-olfactory GPCRs (Homo sapiens, UniProt P29371); settings: receptor TACR3
T1 construct: expressed in transfected cells; host or cells: HTLA cells

320 non-olfactory GPCRs [2] = biological target: T2, 320 non-olfactory GPCRs (Homo sapiens, UniProt Q9HBX9); settings: receptor RXFP1
T2 construct: expressed in transfected cells; host or cells: HTLA cells

320 non-olfactory GPCRs [3] = biological target: 320 non-olfactory GPCRs (Homo sapiens, UniProt Q03431); settings: receptor PTH1R
320 non-olfactory GPCRs [4] = biological target: T3, 320 non-olfactory GPCRs (Homo sapiens, UniProt Q9NSD7); settings: receptor RXFP3
T3 construct: expressed in transfected cells; host or cells: HTLA cells

[5] = Fig_5f, single replicate values
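For GPCRome agonism screen response in this document: fold over basal response of each receptor without drug.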

T2 sequence (Q9HBX9 whole entry): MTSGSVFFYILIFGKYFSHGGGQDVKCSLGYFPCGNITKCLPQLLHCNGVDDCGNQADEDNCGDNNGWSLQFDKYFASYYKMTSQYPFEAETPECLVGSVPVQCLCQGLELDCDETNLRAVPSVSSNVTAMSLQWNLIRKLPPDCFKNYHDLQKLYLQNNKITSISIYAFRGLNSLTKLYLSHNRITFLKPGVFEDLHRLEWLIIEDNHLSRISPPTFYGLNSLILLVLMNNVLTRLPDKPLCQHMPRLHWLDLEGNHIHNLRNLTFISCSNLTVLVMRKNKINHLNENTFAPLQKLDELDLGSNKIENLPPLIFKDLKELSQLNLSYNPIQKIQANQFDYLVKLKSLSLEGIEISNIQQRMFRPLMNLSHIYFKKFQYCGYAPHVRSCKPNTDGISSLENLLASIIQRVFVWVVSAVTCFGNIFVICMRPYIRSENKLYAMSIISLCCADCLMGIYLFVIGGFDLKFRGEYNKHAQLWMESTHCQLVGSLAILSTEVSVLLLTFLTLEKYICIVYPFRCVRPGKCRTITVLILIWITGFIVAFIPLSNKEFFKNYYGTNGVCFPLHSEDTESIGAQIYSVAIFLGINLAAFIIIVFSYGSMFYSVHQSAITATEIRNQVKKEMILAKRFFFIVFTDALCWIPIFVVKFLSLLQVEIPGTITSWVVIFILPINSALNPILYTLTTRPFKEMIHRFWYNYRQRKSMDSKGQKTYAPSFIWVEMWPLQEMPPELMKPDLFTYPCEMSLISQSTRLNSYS
Chain of 320 non-olfactory GPCRs (Homo sapiens, UniProt Q03431) (Q03431 27-593): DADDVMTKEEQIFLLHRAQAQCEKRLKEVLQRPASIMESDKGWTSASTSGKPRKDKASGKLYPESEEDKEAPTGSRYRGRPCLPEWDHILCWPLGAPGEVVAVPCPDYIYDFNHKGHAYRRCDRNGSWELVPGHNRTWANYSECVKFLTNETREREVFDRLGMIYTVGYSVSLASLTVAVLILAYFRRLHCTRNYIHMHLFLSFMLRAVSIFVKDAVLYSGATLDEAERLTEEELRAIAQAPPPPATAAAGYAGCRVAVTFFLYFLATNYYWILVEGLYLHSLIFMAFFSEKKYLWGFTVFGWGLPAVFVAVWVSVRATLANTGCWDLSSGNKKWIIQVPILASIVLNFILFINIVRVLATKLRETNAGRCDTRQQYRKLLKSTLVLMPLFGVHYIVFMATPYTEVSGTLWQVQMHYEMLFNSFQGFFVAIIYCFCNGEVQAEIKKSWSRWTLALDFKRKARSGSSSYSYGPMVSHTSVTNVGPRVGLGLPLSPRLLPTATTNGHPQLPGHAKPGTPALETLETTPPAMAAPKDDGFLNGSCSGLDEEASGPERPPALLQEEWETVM
T1 sequence (P29371 whole entry): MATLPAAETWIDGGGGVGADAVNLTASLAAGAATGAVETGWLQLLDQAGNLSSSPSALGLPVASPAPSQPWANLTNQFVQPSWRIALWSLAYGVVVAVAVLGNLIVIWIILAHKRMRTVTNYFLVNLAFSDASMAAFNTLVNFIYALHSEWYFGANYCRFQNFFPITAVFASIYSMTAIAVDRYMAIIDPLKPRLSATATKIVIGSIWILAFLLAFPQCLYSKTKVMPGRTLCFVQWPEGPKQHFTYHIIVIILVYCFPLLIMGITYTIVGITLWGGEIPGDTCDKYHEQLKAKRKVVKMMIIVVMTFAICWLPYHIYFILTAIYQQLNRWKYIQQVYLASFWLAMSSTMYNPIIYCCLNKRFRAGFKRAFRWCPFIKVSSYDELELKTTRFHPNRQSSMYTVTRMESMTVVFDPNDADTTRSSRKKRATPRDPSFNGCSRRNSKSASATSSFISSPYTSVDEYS
T3 sequence (Q9NSD7 whole entry): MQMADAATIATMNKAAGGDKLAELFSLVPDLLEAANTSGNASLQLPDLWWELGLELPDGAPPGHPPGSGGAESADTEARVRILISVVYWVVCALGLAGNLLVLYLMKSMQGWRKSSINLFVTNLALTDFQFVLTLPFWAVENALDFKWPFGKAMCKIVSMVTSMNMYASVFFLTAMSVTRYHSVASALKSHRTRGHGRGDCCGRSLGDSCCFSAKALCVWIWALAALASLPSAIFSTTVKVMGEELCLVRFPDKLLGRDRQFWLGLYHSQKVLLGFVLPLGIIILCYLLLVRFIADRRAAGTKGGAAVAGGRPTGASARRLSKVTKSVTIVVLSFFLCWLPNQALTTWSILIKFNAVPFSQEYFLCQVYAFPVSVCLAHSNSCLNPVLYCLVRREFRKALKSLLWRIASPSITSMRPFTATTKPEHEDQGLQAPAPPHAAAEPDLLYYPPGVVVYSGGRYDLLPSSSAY

GPCRome screening signal at TACR3 (320 non-olfactory GPCRs [1]; [5])	GPCRome screening signal at RXFP1 (320 non-olfactory GPCRs [2]; [5])	GPCRome screening signal at PTH1R (320 non-olfactory GPCRs [3]; [5])	GPCRome screening signal at RXFP3 (320 non-olfactory GPCRs [4]; [5])	Compound	GPCRome agonism screen response (320 non-olfactory GPCRs [1]; replicate values, Fig_4g)	GPCRome agonism screen response (320 non-olfactory GPCRs [2]; replicate values, Fig_4g)	GPCRome agonism screen response (320 non-olfactory GPCRs [3]; replicate values, Fig_4g)	GPCRome agonism screen response (320 non-olfactory GPCRs [4]; replicate values, Fig_4g)
1.15 and 1.023 and 1.051 and 0.8328	1.526 and 1.245 and 1.665 and 0.7058	2.489 and 1.041 and 1.352 and 1.077	0.4184 and 0.8431 and 0.6194 and 0.3935	CCOc1ccccc1CCC(C)NCC1(O)CCCCC1.Cl (racemic) [Fig_5f]	–	–	–	–
–	–	–	–	CCOc1cccc2cc(C(C)NCC3(O)CCCCC3)oc12 (centres unmarked) [O4LE6]	1.119 and 1.001 and 1.104 and 0.992	1.294 and 0.8675 and 1.5976 and 1.234	0.6677 and 0.9983 and 1.484 and 1.06	0.4551 and 0.2696 and 0.704 and 0.4767
